Test results from article PMC10818824, “In Vitro and In Silico Analysis of the Bindings between Legacy and Novel Per- and Polyfluoroalkyl Substances and Human Serum Albumin” (Toxics, 2024).

molecular target: T1, HSA (human serum albumin) (Homo sapiens, UniProt P02768); experiment: intrinsic fluorescence quenching, double-log fit; format: binding; parameters: unit not given here; details: Tris-HCl pH 7.4, room temperature, 30 min, ex 275 nm; ethanol stocks; KA unit not given
T1 construct: gene ALB; mature single chain of 585 residues, N-terminal Asp, C-terminal Leu; untagged; monomer
From the text: intrinsic fluorescence quenching, double-log fit on HSA (human serum albumin)

T1 sequence (P02768 25-609): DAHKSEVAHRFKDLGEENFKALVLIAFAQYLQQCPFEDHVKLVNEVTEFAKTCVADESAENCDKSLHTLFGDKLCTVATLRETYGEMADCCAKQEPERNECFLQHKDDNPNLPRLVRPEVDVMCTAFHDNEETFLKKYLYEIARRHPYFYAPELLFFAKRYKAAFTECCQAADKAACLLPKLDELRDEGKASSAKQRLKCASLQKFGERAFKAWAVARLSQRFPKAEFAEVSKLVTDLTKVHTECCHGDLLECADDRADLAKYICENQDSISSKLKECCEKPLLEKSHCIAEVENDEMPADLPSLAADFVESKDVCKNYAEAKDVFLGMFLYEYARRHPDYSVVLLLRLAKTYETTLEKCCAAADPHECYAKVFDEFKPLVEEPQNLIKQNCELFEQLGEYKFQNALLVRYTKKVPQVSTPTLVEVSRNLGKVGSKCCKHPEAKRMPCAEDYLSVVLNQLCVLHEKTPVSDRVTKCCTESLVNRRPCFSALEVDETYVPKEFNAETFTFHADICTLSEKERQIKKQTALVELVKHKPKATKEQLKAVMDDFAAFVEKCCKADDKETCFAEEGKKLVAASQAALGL

**Q.** With `O=S(=O)(O)C(F)(F)C(F)(F)OC(F)(F)C(F)(F)C(F)(F)C(F)(F)C(F)(F)C(F)(F)Cl` [9Cl-PF3ONS, 9–chlorohexadecafluoro–3–oxanone–1–sulfonic acid] as the molecule, how does the “Binding Constant KA” value read?
**A.** 117.112

**Q.** With `O=S(=O)(O)C(F)(F)C(F)(F)OC(F)(F)C(F)(F)C(F)(F)C(F)(F)C(F)(F)C(F)(F)C(F)(F)C(F)(F)Cl` [11Cl-PF3OUdS, 11–chloroeicosafluoro–3–oxaundecane–1–sulfonic acid] as the molecule, how does the “Binding Constant KA” value read?
**A.** 127.6145

**Q.** `O=C(O)C(F)(F)C(F)OC(F)(F)C(F)(F)C(F)(F)OC(F)(F)F` (centres unmarked) [NaDONA, sodium dodecafluoro-3H–4,8–dioxanonanoate] was tested. Which “Binding Constant KA” value did it give?
**A.** 93.0894

**Q.** With `O=C(O)C(F)(F)C(F)(F)C(F)(F)F` [PFBA] as the molecule, how does the “Binding Constant KA” value read?
**A.** 20.3657

**Q.** With `O=S(=O)(O)C(F)(F)C(F)(F)C(F)(F)C(F)(F)F` [PFBS] as the molecule, how does the “Binding Constant KA” value read?
**A.** 116.4930

**Q.** For `O=S(=O)(O)C(F)(F)C(F)(F)C(F)(F)C(F)(F)C(F)(F)C(F)(F)F` [PFHxS], which “Binding Constant KA” value is on record?
**A.** 157.9429

**Q.** How did the “Binding Constant KA” value turn out when `O=S(=O)(O)C(F)(F)C(F)(F)C(F)(F)C(F)(F)C(F)(F)C(F)(F)C(F)(F)C(F)(F)F` [PFOS] was run?
**A.** 394.639

**Q.** For `O=S(=O)(O)C(F)(F)C(F)(F)C(F)(F)F` [PFPrS], which “Binding Constant KA” value is on record?
**A.** 79.4511
